Patent publication US9695155B2, “Herbicidal substituted pyrimidinyloxy benzene compounds” (E. I. DU PONT DE NEMOURS AND COMPANY, priority 2013, dated 2017)

Key:
velvetleaf = experiment: Test A postemergence; assay type: in vivo, Abutilon theophrasti; details: for pest or weed control at 500 g/ha: read-out: Plant response rating Velvetleaf
Method in brief: (§1)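 Scoring: eye-based comparison with untreated controls, 0 for no effect through 100 for complete control, at about day 10. Treatments: directed soil spray preemergence; foliar spray postemergence on 2–10 cm plants at the one- to two-leaf stage. Medium: loam soil with sand.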

barnyardgrass [1] = experiment: Test A postemergence; assay type: in vivo, Echinochloa crus-galli; details: for pest or weed control at 125 g/ha / pest or weed control at 500 g/ha: Echinochloa crus-galli, post-emergence, 240 h; for pest or weed control at 125 g/ha: read-out: Plant response rating, Barnyardgrass; for pest or weed control at 500 g/ha: read-out: Plant response rating Barnyardgrass
Method in brief: as §1

pigweed [2] = experiment: Test A postemergence; assay type: in vivo, Amaranthus retroflexus; details: for pest or weed control at 125 g/ha / pest or weed control at 500 g/ha: Amaranthus retroflexus, post-emergence; for pest or weed control at 125 g/ha: read-out: Plant response rating, Pigweed; for pest or weed control at 500 g/ha: 240 h, read-out: Plant response rating Pigweed
Method in brief: as §1

pigweed [3] = experiment: Test A preemergence; assay type: in vivo, Amaranthus retroflexus; details: for pest or weed control at 125 g/ha / pest or weed control at 500 g/ha: Amaranthus retroflexus, pre-emergence
Method in brief: as §1

morningglory [4] = experiment: Test A preemergence; assay type: in vivo, Ipomoea spp.; details: for pest or weed control at 500 g/ha: Ipomoea, pre-emergence, 240 h, read-out: Morningglory plant response rating
Method in brief: as §1

barnyardgrass [5] = experiment: Test B flooded paddy test; assay type: in vivo, Echinochloa crus-galli; details: Flood, 250 g ai/ha, 0 to 100 scale where 0 is no effect and 100 is complete control; for pest or weed control at 250 g/ha: Echinochloa crus-galli, read-out: Plant response rating, Barnyardgrass
Method in brief: (§2)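 Flooded to 3 cm at the 2-leaf stage, pots received compound through the paddy water and were kept at that depth under greenhouse conditions. After 13–15 days, effect was rated by eye relative to controls, 0 = none and 100 = complete control.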

rice = experiment: Test B flooded paddy test; assay type: in vivo, Oryza sativa; details: Flood, 250 g ai/ha, 0 to 100 scale where 0 is no effect and 100 is complete control; for plant injury at 250 g/ha: Oryza sativa, read-out: Plant response rating, Rice
Method in brief: as §2

large (Lg) crabgrass = experiment: Test C postemergence; assay type: in vivo, Digitaria sanguinalis; details: for Plant response rating (0 to 100), Crabgrass, Large: 16 g ai/ha, 0 is no effect, 100 is complete control
Text: (§3) Seeds of plant species selected from blackgrass (Alopecurus myosuroides), Italian ryegrass (Lolium multiflorum), wheat, winter (winter wheat, Triticum aestivum), galium (catchweed bedstraw, Galium aparine), corn (Zea mays), large (Lg) crabgrass (Digitaria sanguinalis), giant foxtail (Setaria faberii), johnsongrass (Sorghum halepense), lambsquarters (Chenopodium album), morningglory (Ipomoea coccinea), yellow nutsedge (Cyperus esculentus), pigweed (Amaranthus retroflexus), ragweed (common ragweed, Ambrosia elatior), soybean (Glycine max), barnyardgrass (Echinochloa crus-galli), oilseed rape (Brassica napus), waterhemp (common waterhemp, Amaranthus rudis), kochia (Kochia scoparia), wild oat (Avena fatua), surinam grass (Brachiaria decumbens), foxtail, green (green foxtail, Setaria viridis), goosegrass (Eleusine indica), bromegrass, downy (downy bromegrass, Bromus tectorum), nightshade (eastern black nightshade, Solanum ptycanthum), cocklebur (common cocklebur, Xanthium strumarium), cupgrass, woolly (woolly cupgrass, Eriochloa villosa), bermudagrass (Cynodon dactylon), sunflower, (common oilseed sunflower, Helianthus annuus), Russian thistle (Salsola kali), and velvetleaf (Abutilon theophrasti) were planted into a blend of loam soil and sand and treated preemergence with test chemicals formulated in a non-phytotoxic solvent mixture which included a surfactant.
(§4) At the same time, plants selected from these crop and weed species and also barley, winter (winter barley, Hordeum vulgare), windgrass (Apera spica-venti), chickweed (common chickweed, Stellaria media), deadnettle (henbit deadnettle, Lamium amplexicaule), and canarygrass (littleseed canarygrass, Phalaris minor) were planted in pots containing Redi-Earth® planting medium (Scotts Company, 14111 Scottslawn Road, Marysville, Ohio 43041) comprising spaghnum peat moss, vermiculite, wetting agent and starter nutrients and treated with postemergence applications of test chemicals formulated in the same manner. Plants ranged in height from 2 to 18 cm (1- to 4-leaf stage) for postemergence treatments. Treated plants and controls were maintained in a greenhouse for 13 to 15 days, after which time all species were compared to controls and visually evaluated. Plant response ratings, summarized in Table C, are based on a scale of 0 to 100 where 0 is no effect and 100 is complete control. A dash (-) response means no test result.

blackgrass = experiment: Test C postemergence; assay type: in vivo, Alopecurus myosuroides; details: for Plant response rating (0 to 100), Blackgrass: 16 g ai/ha, 0 is no effect, 100 is complete control
Text: as §3, §4

ragweed = experiment: Test C postemergence; assay type: in vivo, Ambrosia elatior; details: for Plant response rating (0 to 100), Ragweed: 16 g ai/ha, 0 is no effect, 100 is complete control
Text: as §3, §4

wheat, winter = experiment: Test C preemergence; assay type: in vivo, Triticum aestivum; details: Triticum aestivum, pre-emergence
Text: as §3, §4

morningglory [6] = experiment: Test C preemergence; assay type: in vivo, Ipomoea coccinea; details: Ipomoea, pre-emergence
Text: as §3, §4

soybean = experiment: Test C preemergence; assay type: in vivo, Glycine max; details: Glycine max, pre-emergence
Text: as §3, §4

[7] = Abutilon theophrasti, post-emergence, 240 h, 500 g ai/ha, 0 to 100 scale, 0 no effect, 100 complete control
[8] = 125 g ai/ha, 0 to 100 scale where 0 is no effect and 100 is complete control
[9] = 500 g ai/ha, 0 to 100 scale, 0 no effect, 100 complete control
[10] = 240 h, 500 g ai/ha, 0 to 100 scale, 0 no effect, 100 complete control, approx. 10 days, read-out: Pigweed plant response rating
[11] = 500 g ai/ha, 0 to 100 scale, 0 no effect, 100 complete control, approx. 10 days
[12] = 31 g ai/ha, 0 to 100 scale, 0 no effect, 100 complete control
[13] = 125 g ai/ha, postemergence, visual rating, scale 0 to 100 (0 no effect, 100 complete control)
[14] = Postemergence, 62 g ai/ha, scale 0 to 100 (0 no effect, 100 complete control)
[15] = 1000 g ai/ha, 0 to 100 scale, 0 no effect, 100 complete control
[16] = 31 g ai/ha, postemergence, visual rating, scale 0 to 100 (0 no effect, 100 complete control), 13 to 15 days

| Structure (SMILES) | pest or weed control at 500 g/ha (velvetleaf; [7]) [%] | pest or weed control at 125 g/ha (barnyardgrass [1]; [8]) [%] | pest or weed control at 500 g/ha (barnyardgrass [1]; [9]) [%] | pest or weed control at 125 g/ha (pigweed [2]; [8]) [%] | pest or weed control at 500 g/ha (pigweed [2]; [9]) [%] | pest or weed control at 500 g/ha (pigweed [3]; [10]) [%] | pest or weed control at 500 g/ha (morningglory [4]; [11]) [%] | pest or weed control at 250 g/ha (barnyardgrass [5]) [%] | plant injury at 250 g/ha (rice) [%] | Plant response rating, Barnyardgrass (barnyardgrass [1]; [8]) | Plant response rating (0 to 100), Crabgrass, Large (large (Lg) crabgrass; postemergence) | Plant response rating, Crabgrass, Large (large (Lg) crabgrass; [13]) | Plant response rating, Crabgrass, Large (large (Lg) crabgrass; [14]) | Plant response rating (0 to 100), Blackgrass (blackgrass; postemergence) | Plant response rating, Blackgrass (blackgrass; [13]) | Plant response rating, Blackgrass (blackgrass; [14]) | Plant response rating (0 to 100), Ragweed (ragweed; postemergence) | Plant response rating, Ragweed (ragweed; [13]) | Plant response rating, Barnyardgrass (barnyardgrass [5]) | Plant response rating, Rice (rice) | further results |
| --- | --- | --- | --- | --- | --- | --- | --- | --- | --- | --- | --- | --- | --- | --- | --- | --- | --- | --- | --- | --- | --- |
| FC(F)(F)c1ccn(-c2ccccc2Oc2ncc(Cl)cn2)n1 [Compound 2, 5-chloro-2-[2-[3-(trifluoromethyl)-1H-pyrazol-1-yl]phenoxy]pyrimidine] | 60 | 30 | 70 | 60 | 100 | 100 | 20 | 0 | 0 | – | – | – | – | – | – | – | – | – | – | – | pest or weed control at 125 g/ha (pigweed [3]; 240 h, 125 g ai/ha, 0 to 100 scale where 0 is no effect and 100 is complete control, read-out: Pigweed plant response rating): 90% |
| FCc1cccc(Oc2ncc(Br)cn2)c1-n1cc(C(F)(F)F)cn1 [Compound 120] | – | – | – | – | – | – | – | – | – | 80 | 5 | 10 | 10 | 0 | 30 | 5 | 10 | 60 | 0 | 0 | Plant response rating, Barnyardgrass (barnyardgrass [1]; [12]): 20; Plant response rating, Blackgrass (blackgrass; Postemergence, 31 g ai/ha, scale 0 to 100 (0 no effect, 100 complete control), 13 to 15 days): 5; Plant response rating, Pigweed (pigweed [2]; [12]): 60; Pigweed plant response rating (0 to 100 scale) (pigweed [3]; 31 g ai/ha): 100; Plant response rating, Pigweed (pigweed [3]; [8]): 100; Plant response rating, Ragweed (ragweed; [14]): 25 |
| Fc1cccc(Oc2ncc(Cl)cn2)c1-n1cc(C2CC2)nn1 [Compound 155] | – | – | – | – | – | – | – | – | – | – | 5 | 15 | 5 | 0 | 5 | 5 | 50 | 85 | 40 | 50 | Plant response rating, Barnyardgrass (barnyardgrass [1]; [15]): 100; Crabgrass, Large plant response rating (large (Lg) crabgrass; [16]): 5; Blackgrass plant response rating (blackgrass; [16]): 5; Plant response rating, Pigweed (pigweed [2]; [15]): 100; Pigweed plant response rating (pigweed [3]; 1000 g ai/ha, 0 to 100 scale, 0 no effect, 100 complete control, approx. 10 days): 100; Ragweed plant response rating (ragweed; [16]): 55; Plant response rating, Ragweed (ragweed; [14]): 70 |
| FC(F)(F)c1cnn(-c2ccccc2Oc2ncc(Br)cn2)c1 [Compound 18, 5-bromo-2-[2-[4-(trifluoromethyl)-1H-pyrazol-1-yl]phenoxy]pyrimidine] | 100 | 60 | 100 | 100 | 100 | 100 | 40 | 30 | 0 | – | – | – | – | – | – | – | – | – | – | – | pest or weed control at 125 g/ha (velvetleaf; Abutilon theophrasti, post-emergence, 240 h, 125 g ai/ha, 0 to 100 scale where 0 is no effect and 100 is complete control, read-out: Plant response rating, Velvetleaf): 100%; plant injury at 62 g/ha (wheat, winter; 62 g ai/ha, preemergence, scale 0 (no effect) to 100 (complete control), read-out: Wheat plant response rating): 5%; plant injury at 125 g/ha (wheat, winter; 125 g ai/ha, preemergence, scale 0 (no effect) to 100 (complete control), read-out: Wheat plant response rating): 35%; plant injury at 250 g/ha (wheat, winter; 250 g ai/ha, preemergence, scale 0 (no effect) to 100 (complete control), read-out: Wheat plant response rating): 35%; plant injury at 31 g/ha (wheat, winter; Preemergence, 31 g ai/ha, scale 0 to 100, 0 no effect, 100 complete control, read-out: Plant response rating, Wheat): 0%; pest or weed control at 125 g/ha (pigweed [3]; 125 g ai/ha, 0 to 100 scale where 0 is no effect and 100 is complete control, read-out: Plant response rating, Pigweed): 100%; pest or weed control at 62 g/ha (morningglory [6]; 62 g ai/ha, preemergence, scale 0 (no effect) to 100 (complete control), read-out: Morningglory plant response rating): 30%; pest or weed control at 125 g/ha (morningglory [6]; 125 g ai/ha, preemergence, scale 0 (no effect) to 100 (complete control), read-out: Morningglory plant response rating): 80%; pest or weed control at 250 g/ha (morningglory [6]; 250 g ai/ha, preemergence, scale 0 (no effect) to 100 (complete control), read-out: Morningglory plant response rating): 98%; pest or weed control at 31 g/ha (morningglory [6]; Preemergence, 31 g ai/ha, scale 0 to 100, 0 no effect, 100 complete control, read-out: Plant response rating, Morningglory): 10%; Plant response rating, Morningglory (morningglory [4]; [8]): 0; plant injury at 62 g/ha (soybean; 62 g ai/ha, preemergence, scale 0 (no effect) to 100 (complete control), read-out: Soybean plant response rating): 65%; plant injury at 125 g/ha (soybean; 125 g ai/ha, preemergence, scale 0 (no effect) to 100 (complete control), read-out: Soybean plant response rating): 85%; plant injury at 250 g/ha (soybean; 250 g ai/ha, preemergence, scale 0 (no effect) to 100 (complete control), read-out: Soybean plant response rating): 85%; plant injury at 31 g/ha (soybean; Preemergence, 31 g ai/ha, scale 0 to 100, 0 no effect, 100 complete control, read-out: Plant response rating, Soybean): 25% |
| Clc1cnc(Oc2ccccc2-n2cc(Cl)cn2)nc1 [Compound 3] | – | – | – | – | – | – | – | – | – | 10 | – | – | – | – | – | – | – | – | 0 | 0 | Plant response rating, Velvetleaf (velvetleaf; [8]): 100; Plant response rating, Velvetleaf (velvetleaf; [9]): 100; Plant response rating, Barnyardgrass (barnyardgrass [1]; [9]): 90; Plant response rating, Pigweed (pigweed [2]; [8]): 90; Plant response rating, Pigweed (pigweed [2]; [9]): 100; Pigweed plant response rating (pigweed [3]; [8]): 90; Pigweed plant response rating (pigweed [3]; [11]): 100; Morningglory plant response rating (morningglory [4]; [8]): 0; Morningglory plant response rating (morningglory [4]; [11]): 20 |
